Assay [1] relates to human PMN migration across T84 epithelial monolayers. Put plainly: Effect of inhibitors on baseline and LXA4-elicited PMN transepithelial migration, apical-to-basolateral. It counts as cell-based.
Assay [2] deals with human PMN migration across inverted T84 epithelial monolayers. The experiment in a line: PMN transepithelial migration assay, basolateral-to-apical direction (inverted monolayers), fMLP gradient, myeloperoxidase readout. The format is cell-based. The conditions noted are these: for inhibition of PMN migration, basolateral-to-apical (total MPO activity): 10 nM, 15 min pre-incubation 37°C, 1 μM fMLP, 120 min. The procedure:
Cell culture Approximately 350 epithelial monolayers were used for these studies. T84 intestinal epithelial cells (passages 70-95) were grown and maintained as confluent monolayers on collagen coated permeable support. Monolayers were grown on 0.33 cm^2 ring-supported polycarbonate filters (Costar Corp., Cambridge, Mass.) and utilized 6-14 days after plating as described in Example 2. Transepithelial resistance to passive ion flow was measured as described in Parkos C. A., et al. (1991). J. Clin. Invest. 88: 1605-1612); and Parkos C. A., et al. (1992). J. Cell. Biol. 117: 757-764). Inverted monolayers used to study migration of PMN in the basolateral-to-apical direction were constructed as described in Parkos C. A., et al. (1991). J. Clin. Invest. 88:1605-1612).
Migration assay: The PMN transepithelial migration assay has been detailed in Nash S., et al. (1987). J. Clin. Invest. 80: 1104-1113; Nash S., et al. (1991). J. Clin. Invest 87: 1474-1477); Parkos C. A., et al. (1991). J. Clin. Invest. 88: 1605-1612); and Parkos C. A., et al. (1992). J. Cell. Biol. 117: 757-764. Briefly, human PMN were isolated from normal human volunteers and suspended in modified HBSS (without Ca^2+ and Mg^2+, with 10 mM Hepes, pH 7.4, Sigma) at a concentration of 5×10^7/ml. Prior to addition of PMN, T84 monolayers were extensively rinsed in HBSS to remove residual serum components. Migration assays were performed by the addition of PMN (40 μl) to HBSS ([…]) in the upper chambers after chemoattractant (1 μM fMLP in HBSS) was added to the opposing (lower) chambers. Unless otherwise indicated, PMN were not washed free of LXA4 prior to addition to monolayers, and therefore, a five-fold dilution of lipoxin was present during the migration assay. For apical-to-basolateral migration experiments, PMN (2×10^6) were added at time 0. Migration in the basolateral-to-apical direction, while qualitatively similar, is substantially more efficient than in the apical-to-basolateral direction. (Parkos C. A., et al. (1991). J. Clin. Invest. 88: 1605-1612). Therefore, 5-fold fewer PMN (4×10^5) were added when migration proceeded in the basolateral-to-apical direction in order that baseline migration signals be approximately equivalent in both directions. (Parkos C. A., et al. (1991). J. Clin. Invest. 88: 1605-1612). Migration was allowed to proceed for 120 minutes, unless otherwise noted. All PMN transepithelial migration experiments were performed in a 37° C. room to ensure that epithelial monolayers, solutions, plasticware, etc., were maintained at uniform 37° C. temperature.
Migration was quantitated by assaying for the PMN azurophilic granule marker myeloperoxidase (MPO) as described previously (Parkos C. A., et al. (1991). J. Clin. Invest 88: 1605-1612). Following each migration assay, non-adherent PMN were extensively washed from the surface of the monolayer and PMN cell equivalents (PMN CE), estimated from a standard curve, were assessed as the number of PMN's associated with the monolayer, the number which had completely traversed the monolayer (ie. across the monolayer into the reservoir bath), as well as the total number of transmigrating PMN (the sum of monolayer and reservoir-associated PMN).
Data Presentation: Individual experiments were performed using large numbers of uniform groups of monolayers and PMN from individual blood donors on individual days. PMN isolation was restricted to five different blood donors (repetitive donations) over the course of these studies. Myeloperoxidase assay data were compared by two-factor analysis of variance (ANOVA) or by comparison of means using Student's t-Test PMN migration results are represented as PMN CE derived from a daily standard PMN dilution curve. Monolayer-associated PMN are represented as the number of PMN CE per monolayer and reservoir-associated PMN (ie. PMN which had completely traversed the monolayer into the lower chamber) are represented as the number of PMN CE/ml (total volume of 1 ml). […]

The subject of assay [3] is neutrophil transmigration across T84 monolayers. Put plainly: Neutrophil migration across inverted T84 monolayers (basolateral to apical), myeloperoxidase assay, Example 2. It counts as cell-based, human. The conditions noted are these: FMLP 10^−6 M, PMN 6 × 10^6/cm^2. From the text: (§1) Preparation of monolayers: Normal or inverted monolayers can be constructed for a physiological microassay using the commercially available insert system (Costar inserts, 0.33 cm^2, 5 μm polycarbonate filters). The larger pore size is crucial for allowing neutrophils to penetrate the filter. Collagen 1 must coat the filters to allow attachment of T84 cells. Original descriptions of the collagen coat involved procedures in which the collagen was chemically crosslinked Dharmsathaphorn, K. et al; Meth. Enzymol. 192:354-389; 1990. Dharmsathaphom, K. et al; Am. J. Physiol. 246 (Gastrointest. Liver Physiol. 9):G204-G208; 1984.
Inverted monolayers can also be grown using this technique. For this 0.8 mm thick lexan rings having the same dimension of the base of Costar inserts are machined, deburred, cleaned by boiling with a trace of detergent and subsequently exhaustively washed, and attached to the underside of the insert using General Electric RTV Silicone glue (this underside ring is necessary for a peripheral electrical seal). After drying overnight, the inserts are sterilized by submersion in 70% ethanol (4-hr overnight), inverted onto a sterile petri dish in a hood, and allowed to dry. Collagen and cells are added to the filter (underside now facing up) exactly as with unmodified inserts and cells are allowed to attach for 4 hours before righting the inserts into the 24 well holding plates. Subsequent treatment of the monolayers is identical to that described above.
Isolation of neutrophils: Neutrophils are isolated from whole blood using a gelatin-sedimentation technique. Briefly, whole blood, anticoagulated with citrate/dextrose, is centrifuged at 300×g for 20 minutes (20° C.). The plasma and buffy coat are carefully removed using a curved, siliconized glass pipette which is attached to a vacuum trap. […]
Myeloperoxidase assay of neutrophil transepithelial migration: PMN contents of monolayers and lower chambers can be quantitated by assaying the PMN-specific azurophil granule marker, myeloperoxidase (MPO). […]

Assay [4] shares this test system. Put plainly: Neutrophil transmigration across T84 monolayers by resistance or myeloperoxidase assay, Example 2. The format is cell-based, human. The conditions noted are these: fMLP 10^−6 and 10^−7 M.
Excerpt: as §1
Isolation of neutrophils: Neutrophils are isolated from whole blood using a gelatin-sedimentation technique. Briefly, whole blood, anticoagulated with citrate/dextrose, is centrifuged at 300×g for 20 minutes (20° C.). The plasma and buffy coat are carefully removed using a curved, siliconized glass pipette which is attached to a vacuum trap. Care must be taken not to aspirate the interface between the buffy coat and RBC since this is where PMN reside. […]
For measurements, bridges are positioned as described, and the spontaneous transepithelial electrical potential and the instantaneous potential generated by passing 25 μA of current are measured. […] Using these values and Ohm's Law, tissue resistance and transepithelial current are then calculated. […]

Marks after values point to notes of the source that are not given here.

In the case of `CC(C)c1ccc2c(c1)c(SC(C)(C)C)c(CC(C)(C)C(=O)O)n2Cc1ccc(Cl)cc1` [MK886], in assay [1] (MK886 10 ng/ml), the “effect on LXA4-elicited increase in PMN transepithelial migration” value was “did not effect” and the “effect on baseline fMLP driven PMN migration” value is listed as “did not alter”. `CC1CNCCN1S(=O)(=O)c1cccc2cnccc12` (stereo not shown) [Compound H7]: the “inhibition of PMN transepithelial migration compared to vehicle control” value in assay [1] (H7 100 μM final concentration) was 91±4%. Consider `CCCCCC(O)C=CC=CC=CC=CC(O)C(O)CCCC(=O)O` (stereo not drawn) [11-trans-LXA4], for which the “inhibition of PMN migration, basolateral-to-apical (total MPO activity)” value in assay [2] worked out at 16±6%. On to `COc1ccc2c(c1)c(CC(=O)O)c(C)n2C(=O)c1ccc(Cl)cc1` [indomethacin], for which, in assay [1] (indomethacin 50 μM, 15 min, 37°C, fMLP gradient), the “baseline PMN migration, % vehicle control” value is 109±13 % vehicle control. pertussis toxin: the “inhibition of control, LXA4-elicited migration” value in assay [1] (PMN pre-exposed to pertussis toxin 2 μg/ml, then LXA4) worked out at 87±4%. Moreover, in assay [1] (pertussis toxin 2 μg/ml), the “inhibition of baseline fMLP driven migration compared to vehicle control” value was 91±8%. Regarding N-formyl-Met-Leu-Phe [fMLP], in assay [3], the “Neutrophil Cell Equivalents In Monolayers” value is recorded as 5.47 × 10^4, the “Neutrophil Cell Equivalents In Opposite Reservoir” value is given as 85.30^# × 10^4 and the “Neutrophil Cell Equivalents Total” value is reported as 90.77^# × 10^4. For the same molecule, the “stimulation of neutrophil transmigration” value in assay [4] is “effective in stimulating transmigration”. As for `CCCCC[C@H](O)[C@H](O)/C=C/C=C/C=C\C=C\[C@@H](O)CCCC(=O)O` (relative stereo) [LXB4, (5S, 14R, 15S)-trihydroxy-6,10,12-trans-8-cis-eicosatetraenoic acid], in assay [2], the “effect on PMN migration in basolateral-to-apical direction” value is reported as “no effect” and the “inhibition of PMN migration, basolateral-to-apical (total MPO activity)” value is reported as 7±4%.

Source of the values: patent US8440718B2, “Modulation of inflammation related to columnar epithelia” (The Brigham and Women's Hospital, Inc., priority 1991, dated 2013).
